Results: patent US20110039762A1, “TARGETED ANTIMICROBIAL MOIETIES” (C3 JIAN, INC., priority 2009, published 2011)

Assays:
S. epidermidis [1] = assay: Kill or inhibit growth/proliferation; morphology, biofilm and growth disruption (Tables 5, 6); type: cell-based, Staphylococcus epidermidis; design: key: A: Peptide aggregates; B: Less hyphal formation; Clumps; Diffuse clumps and small polyps; F: Diffuse growth; H: Thin; I: Growth inhibition; Microcolony formation; Rippled; Small polyps; Thick; W: Halo formation on top, microlonies on bottom; further: test concentration or dose not given here
C. albicans = assay: as above; type: cell-based, Candida albicans; design: key: A: Peptide aggregates; B: Less hyphal formation; Clumps; Diffuse clumps and small polyps; F: Diffuse growth; H: Thin; I: Growth inhibition; Microcolony formation; Rippled; Small polyps; Thick; W: Halo formation on top, microlonies on bottom; further: test concentration or dose not given here
E. coli [2] = type: cell-based, Escherichia coli; conditions: E. coli
Method: (§1) Typically, the in vitro antimicrobial activity of antimicrobial agents is tested using standard NCCLS bacterial inhibition assays, or MIC tests (see, National Committee on Clinical Laboratory Standards “Performance Standards for Antimicrobial Susceptibility Testing,” NCCLS Document M100-S5 Vol. 14, No. 16, December 1994; “Methods for dilution antimicrobial susceptibility test for bacteria that grow aerobically-Third Edition,” Approved Standard M7-A3, National Committee for Clinical Standards, Villanova, Pa.).
(§2) Briefly, ˜1×10^5 cfu/mL bacteria were diluted in TH (S. mutans), or Mueller-Hinton (MH) broth (all other organisms) and distributed to 96-well plates. Serially-diluted (2-fold) peptides were then added and the plates incubated at 37° C. for 18-24 h. […] All experiments were conducted 10 times.

microorganisms = assay: Peptides having multiple activities (targeting/binding, antimicrobial, growth or phenotype altering)
Excerpt: In certain embodiments, peptides described herein can have multiple activities. Thus for example, a peptide can have both binding/targeting activity and antimicrobial activity. Such peptides can be used, e.g., in a chimeric construct, for any or all of these properties. Thus, for example, a peptide designated “B” in Table 8 can be used as a targeting peptide. If it is also designated G or M it can also be used for antimicrobial activity.

MRSA [3] = assay: MIC (broth microdilution); type: cell-based, Methicillin-resistant Staphylococcus aureus
Method: as §1, §2

S. pneumoniae [4] = assay: Kill or inhibit growth/proliferation; morphology, biofilm and growth disruption (Tables 5, 6); type: cell-based, Streptococcus pneumoniae; design: key: A: Peptide aggregates; B: Less hyphal formation; Clumps; Diffuse clumps and small polyps; F: Diffuse growth; H: Thin; I: Growth inhibition; Microcolony formation; Rippled; Small polyps; Thick; W: Halo formation on top, microlonies on bottom; further: test concentration or dose not given here
S. mutans [5] = type: cell-based, Streptococcus mutans; conditions: S. mutans
Method: as §1, §2

S. mutans [6] = assay: Kill or inhibit growth/proliferation; morphology, biofilm and growth disruption (Tables 5, 6); type: cell-based, Streptococcus mutans; design: key: A: Peptide aggregates; B: Less hyphal formation; Clumps; Diffuse clumps and small polyps; F: Diffuse growth; H: Thin; I: Growth inhibition; Microcolony formation; Rippled; Small polyps; Thick; W: Halo formation on top, microlonies on bottom; further: test concentration or dose not given here
S. epidermidis [7] = type: cell-based, Staphylococcus epidermidis; conditions: S. epidermidis
Method: as §1, §2

S. pneumoniae [8] = assay: MIC (broth microdilution); type: cell-based, Streptococcus pneumoniae
Method: as §1, §2

MRSA [9] = assay: Kill or inhibit growth/proliferation; morphology, biofilm and growth disruption (Tables 5, 6); type: cell-based, Methicillin-resistant Staphylococcus aureus; design: key: A: Peptide aggregates; B: Less hyphal formation; Clumps; Diffuse clumps and small polyps; F: Diffuse growth; H: Thin; I: Growth inhibition; Microcolony formation; Rippled; Small polyps; Thick; W: Halo formation on top, microlonies on bottom; further: test concentration or dose not given here
P. aeruginosa = type: cell-based, Pseudomonas aeruginosa; conditions: P. aeruginosa
Method: as §1, §2

A. baumannii = assay: MIC (broth microdilution); type: cell-based, Acinetobacter baumannii
Method: as §1, §2

M. luteus = assay: Kill or inhibit growth/proliferation; morphology, biofilm and growth disruption (Tables 5, 6); type: cell-based, Micrococcus luteus; design: key: A: Peptide aggregates; B: Less hyphal formation; Clumps; Diffuse clumps and small polyps; F: Diffuse growth; H: Thin; I: Growth inhibition; Microcolony formation; Rippled; Small polyps; Thick; W: Halo formation on top, microlonies on bottom; further: test concentration or dose not given here
B. subtilis [10] = assay: MIC (broth microdilution); type: cell-based, Bacillus subtilis
Outline: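 2-fold dilution series of peptides in 96-well plates, inoculated at about 1×10^5 cfu/mL in MH broth, following NCCLS standards. Plates held 18–24 h at 37 °C; each run repeated 10 times.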

C. jejuni = assay: Kill or inhibit growth/proliferation; morphology, biofilm and growth disruption (Tables 5, 6); type: cell-based, Campylobacter jejuni; design: key: A: Peptide aggregates; B: Less hyphal formation; Clumps; Diffuse clumps and small polyps; F: Diffuse growth; H: Thin; I: Growth inhibition; Microcolony formation; Rippled; Small polyps; Thick; W: Halo formation on top, microlonies on bottom; further: test concentration or dose not given here
B. subtilis [11] = assay: as above; type: cell-based, Bacillus subtilis; design: key: A: Peptide aggregates; B: Less hyphal formation; Clumps; Diffuse clumps and small polyps; F: Diffuse growth; H: Thin; I: Growth inhibition; Microcolony formation; Rippled; Small polyps; Thick; W: Halo formation on top, microlonies on bottom
[12] = tested on: microorganisms (e.g., bacteria, yeasts, fungi); assay: Targeting peptide binding to target microorganisms (Table 3); conditions: preferably 1x PBS
E. coli [13] = assay: Kill or inhibit growth/proliferation; morphology, biofilm and growth disruption (Tables 5, 6); type: cell-based, Escherichia coli; design: key: A: Peptide aggregates; B: Less hyphal formation; Clumps; Diffuse clumps and small polyps; F: Diffuse growth; H: Thin; I: Growth inhibition; Microcolony formation; Rippled; Small polyps; Thick; W: Halo formation on top, microlonies on bottom; further: test concentration or dose not given here
C. jeikeium = assay: as above; type: cell-based, Corynebacterium jeikeium; design: key: A: Peptide aggregates; B: Less hyphal formation; Clumps; Diffuse clumps and small polyps; F: Diffuse growth; H: Thin; I: Growth inhibition; Microcolony formation; Rippled; Small polyps; Thick; W: Halo formation on top, microlonies on bottom; further: test concentration or dose not given here
P. mirabilis = assay: as above; type: cell-based; design: key: A: Peptide aggregates; B: Less hyphal formation; Clumps; Diffuse clumps and small polyps; F: Diffuse growth; H: Thin; I: Growth inhibition; Microcolony formation; Rippled; Small polyps; Thick; W: Halo formation on top, microlonies on bottom; further: test concentration or dose not given here
E. faecalis = assay: as above; type: cell-based, Enterococcus faecalis; design: key: A: Peptide aggregates; B: Less hyphal formation; Clumps; Diffuse clumps and small polyps; F: Diffuse growth; H: Thin; I: Growth inhibition; Microcolony formation; Rippled; Small polyps; Thick; W: Halo formation on top, microlonies on bottom; further: test concentration or dose not given here
Wherever Organism, effect is given: test concentration or dose not given here.

Substance	Organism, effect (S. epidermidis [1])	Activities (microorganisms)	MIC (MRSA [3])	Organism, effect (S. pneumoniae [4])	Organism, effect (S. mutans [6])	Organism, effect (MRSA [9])	Organism, effect (M. luteus)	Organism, effect (E. coli [13])	further results
FESKILNASKELDKEKKVNTALSFNSHQDFAKAYQNGKI [PF-606]	S. epidermidis (I)	G M	MRSA , 50 μM	S. pneumoniae (H)	S. mutans (I)	MRSA (I)			Organism, effect (C. albicans): C. albicans (B); MIC (E. coli [2]): E. coli, 50 μM; MIC (S. mutans [5]): S. mutans, 50 μM; MIC (S. epidermidis [7]): S. epidermidis, 50 μM; MIC (S. pneumoniae [8]): S. pneumoniae, 50 μM
FIRKFLQKLHL [Peptide K-16]			MRSA , 25 μM						MIC (S. mutans [5]): S. mutans, 8 μM; MIC (P. aeruginosa): P. aeruginosa, 12.5 μM
MGIIAGIIKFIKGLIEKFTGK [PF-006]	S. epidermidis (D)	G B M	MRSA , 50 μM	S. pneumoniae (R)		MRSA (I)	M. luteus (A)		MIC (A. baumannii): A. baumannii, 50 μM; MIC (B. subtilis [10]): B. subtilis, 25 μM; Organism, effect (C. jejuni): C. jejuni (D); Organism, effect (B. subtilis [11]): B. subtilis (I); Target(s) ([12]; microorganism the targeting peptide binds, binding in aqueous buffers varied by peptide solubility): S. epidermidis and M. luteus and E. coli and P. aeruginosa and MRSA and E. faecalis and C. jeikeium and C. jejuni
MIHLTKQNTMEALHFIKQFYDMFFILNFNV [PF-040]	S. epidermidis (D)	G B		S. pneumoniae (D)	S. mutans (F)	MRSA (D)	M. luteus (D)	E. coli (C)	Organism, effect (C. jeikeium): C. jeikeium (D); Organism, effect (C. jejuni): C. jejuni (D); Organism, effect (P. mirabilis): P. mirabilis (C); Organism, effect (B. subtilis [11]): B. subtilis (D)
PF-741: peptide having multiple activities (AKREDTVAAQIGANILNLIQ; Peptide with targeting and/or antimicrobial activity)		G B							Organism, effect (morphology, biofilm and growth disruption) (E. coli [13]): E. coli (C); Organism, effect (morphology, biofilm and growth disruption) (S. epidermidis [1]): S. epidermidis (C); Organism, effect (morphology, biofilm and growth disruption) (S. pneumoniae [4]): S. pneumoniae (D); Organism, effect (morphology, biofilm and growth disruption) (M. luteus): M. luteus (C); Organism, effect (morphology, biofilm and growth disruption) (P. mirabilis): P. mirabilis (C); Organism, effect (morphology, biofilm and growth disruption) (S. mutans [6]): S. mutans (D); Target(s) (microorganisms bound by the targeting peptide) ([12]; peptide binding in aqueous buffers varied by peptide solubility): S. epidermidis and M. luteus and P. mirabilis and P. aeruginosa and C. albicans and MRSA and S. pneumoniae and E. faecalis; Organism, effect (morphology, biofilm and growth disruption) (MRSA [9]): MRSA (C)
SKFKVLRKIIIKEYKGELMLSIQKQR [PF-530]	S. epidermidis (H)	G M		S. pneumoniae (R)		MRSA (C)		E. coli (R)	MIC (A. baumannii): A. baumannii, 25 μM; Organism, effect (E. faecalis): E. faecalis (C)
TKKIELKRFVDAFVKKSYENYILERELKKLIKAINEELPTK [PF-600]	S. epidermidis (C)	G B M		S. pneumoniae (R)	S. mutans (S)	MRSA (M)	M. luteus (C)	E. coli (H)	MIC (E. coli [2]): E. coli, 50 μM; MIC (S. pneumoniae [8]): S. pneumoniae, 50 μM
